Entries after “also recorded” stand apart in the source; their conditions may differ.
Legend:
mouse model = details: 100 mg/kg, intra-peritoneal; cited from earlier work
CAMA-1 cells = assay: MTS cytotoxicity assay; assay type: cell-based, Human; details: increasing concentrations of recombinant TRAIL, 48 hours
Experimental: (§1) MTS cytotoxicity assay. Cells were plated 2×10^4 per well in triplicate wells and incubated overnight. […] Cytotoxicity was assessed using a CellTiter 96 Non-Radioactive Cell Proliferation Assay and medium background was subtracted. Results are presented as percent of HBSS-treated control.

MDA-MB-231 cells = assay: MTS cytotoxicity assay; assay type: cell-based, Human; details: increasing concentrations of recombinant TRAIL, 48 hours
Experimental: as §1

HCC 1937 cells [1] = assay: Annexin V determination by flow cytometry; assay type: cell-based, Human; details: 100 ng of TRAIL for 36 hours
Experimental: (§2) Annexin V determination. 1×10^6 cells were plated per 60 mm dish and cultured overnight. Cells were than left untreated or treated with soluble TRAIL (100 ng/ml) and incubated for additional 36 hours. Cells were than trypsinized and washed with 1× Binding Buffer. For each condition, half of the cell suspension was left untreated and another half was incubated for 15 minutes at room temperature in the dark with Annexin V. Immediately after staining, cells were analyzed by flow cytometry.

MCF-7 cells [2] = assay: Annexin V determination by flow cytometry; assay type: cell-based, Human; details: 100 ng of TRAIL for 36 hours
Experimental: as §2

HCC 1937 cells [3] = assay: MTS cytotoxicity assay; assay type: cell-based, Human
Experimental: (§3) MTS cytotoxicity assay. Cells were plated 2×10^4 per well in triplicate wells and incubated overnight. Serial dilutions of soluble TRAIL in Hank's balanced salt solution (HBSS) were added to the wells and cells were incubated for an additional 36 hours. Cytotoxicity was assessed using a CellTiter 96 Non-Radioactive Cell Proliferation Assay and medium background was subtracted. Results are presented as percent of HBSS-treated control.

MCF-7 cells [4] = assay: MTS cytotoxicity assay; assay type: cell-based, Human
Experimental: as §3

[5] = system: p53-RE (p53C#18) in wild type mouse embryonic fibroblasts; assay: p53 response element luciferase assay with cisplatin; assay type: cell-based; details: wild type MEF; increasing concentrations at the time of transfection
Experimental: FIG. 12. Treatment with cisplatin enhances activity of p53-RE in cells with wild type p53. Wild type and p53−/− mouse embryonic fibroblasts (MEF) were transfected with p53C#18 as described above. Increasing concentrations of cisplatin were added at the time of transfection. Luciferase assay was performed 36-48 hours later and transfection efficiency was normalized.
To determine whether treatment with cisplatin (which increases steady-state level of p53 protein) can enhance activity of the p53-RE in normal cells, wild type and p53−/− mouse embryonic fibroblasts were treated with increasing concentrations of cisplatin at the time of transfection (FIG. 12).

For `CCc1c2c(nc3ccc(OC(=O)N4CCC(N5CCCCC5)CC4)cc13)-c1cc3c(c(=O)n1C2)COC(=O)[C@]3(O)CC` [irinotecan], the “drug-related toxicity (in words)” value (mouse model) is listed as “without drug-related toxicity” and the “survival in a mouse model (in words)” value (mouse model) is listed as “prolong survival”.

For “TRAIL: soluble TRAIL, residues 114-281 of the soluble domain of human TRAIL, expressed in E. coli (BIOMOL)”, the “cell viability by MTS (in words)” value (CAMA-1 cells) was “significant TRAIL-dependent reduction of viability”, the “cell viability by MTS (in words)” value (MDA-MB-231 cells) was “significant TRAIL-dependent reduction of viability; also recorded: biphasic effect” and the “increase in Annexin V staining” value (HCC 1937 cells [1]) was “approximately 17%”. For the same compound, the “increase in Annexin V staining” value (MCF-7 cells [2]) was “approximately 17%”, the “sensitivity to TRAIL-induced apoptosis by MTS (in words)” value (HCC 1937 cells [3]) was “completely resistant” and the “sensitivity to TRAIL-induced apoptosis by MTS (in words)” value (MCF-7 cells [4]) was “completely resistant”.

In the case of `N.N.[Cl][Pt][Cl]` [Cisplatin, cisplatin], the “effect on activity of p53-RE (in words)” value [5] was “enhanced activity of p53C#18 in cells with wild type p53 in a dose-dependent manner”.

Source: patent US20080108582A1, “Methods And Compositions For Combinatorial Approaches To Cancer Gene Therapy” (priority 2003, published 2008)
